According to patent US20050187581A1, “Methods of treating disorders with electric fields” (priority 2000, published 2005):
Read-outs that look alike come from different tables or passages of the source.

Key:
[1] = system: BALB 3T3/A31 fibroblast/embryo cells; assay: Membrane potential of BALB 3T3 cells, DiBAC intensity; assay type: cell-based, murine; settings: final concentration of 0.4 mM A23187
Experimental: A23187 is a monocarboxylic acid extracted from Streptomyces chartreusensis that acts as a mobile-carrier calcium ionophore. DiBAC is a fluorescent dye that enters the cell membrane when the membrane's potential changes. Thus, when the membranes of the BALB 3T3 cells depolarize, the DiBAC enters those membranes thereby increasing the intensity of the DiBAC signal (Y-axis) in the BALB 3T3 cells.
The changes in membrane potential were measured with flow cytometry. The methodology for the flow cytometry was as follows. Culture in DMEM was supplemented with 5% FCS 10 mM HEPES. It was then de-touched with 0.02% trypsin and 0.025% EDTA. […] It was then loaded with DiBAC4(3) of a final concentration of 200 nM. It was incubated at 37 degree C. for >5 min. Then the flow cytometry measurements were performed.

[2] = molecular target: T1, human calcium receptor protein (HuPCaR) (Homo sapiens, UniProt P41180); assay: FURA2 ratio fluorimetry of HuPCaR cells on stepwise additions of extracellular CaCl2; assay type: cell-based
T1 construct: expressed in transfected cells; host or cells: HEK (human embryonic kidney) cells, stably transfected
T1 sequence (P41180 20-1078): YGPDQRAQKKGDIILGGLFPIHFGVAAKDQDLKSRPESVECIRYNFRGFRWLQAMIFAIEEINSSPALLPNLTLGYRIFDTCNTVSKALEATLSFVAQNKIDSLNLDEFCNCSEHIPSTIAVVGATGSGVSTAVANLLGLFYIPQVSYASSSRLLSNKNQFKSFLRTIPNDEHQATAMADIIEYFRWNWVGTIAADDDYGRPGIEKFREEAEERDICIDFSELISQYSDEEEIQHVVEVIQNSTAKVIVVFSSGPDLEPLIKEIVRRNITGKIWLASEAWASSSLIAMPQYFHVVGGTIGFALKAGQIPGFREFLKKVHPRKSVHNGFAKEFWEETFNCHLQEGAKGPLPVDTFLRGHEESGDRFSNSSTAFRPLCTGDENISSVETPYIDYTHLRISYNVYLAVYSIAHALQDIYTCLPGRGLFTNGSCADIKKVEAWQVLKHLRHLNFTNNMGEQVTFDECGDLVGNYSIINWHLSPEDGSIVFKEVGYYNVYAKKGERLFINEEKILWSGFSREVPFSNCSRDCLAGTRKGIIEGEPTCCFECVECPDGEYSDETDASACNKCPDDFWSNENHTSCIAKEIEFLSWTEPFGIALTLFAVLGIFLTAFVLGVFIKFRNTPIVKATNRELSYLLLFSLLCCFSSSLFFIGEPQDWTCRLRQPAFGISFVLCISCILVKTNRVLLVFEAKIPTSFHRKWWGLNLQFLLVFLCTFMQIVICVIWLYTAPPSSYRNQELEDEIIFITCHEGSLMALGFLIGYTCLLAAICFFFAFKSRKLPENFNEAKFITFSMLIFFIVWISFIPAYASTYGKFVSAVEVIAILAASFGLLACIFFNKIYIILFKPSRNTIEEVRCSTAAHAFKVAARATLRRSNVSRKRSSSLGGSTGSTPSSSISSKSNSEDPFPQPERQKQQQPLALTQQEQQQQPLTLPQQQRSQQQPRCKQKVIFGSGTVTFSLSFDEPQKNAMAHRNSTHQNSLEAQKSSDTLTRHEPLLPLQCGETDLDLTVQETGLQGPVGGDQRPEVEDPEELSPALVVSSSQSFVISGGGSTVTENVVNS
Experimental: In selected experiments, ionomycin (1 micromolar final concentration-stock dissolved in dimethyl sulfoxide) was added in order to quantify differences in FURA2 ratio fluorescence. Ionomycin was added to the cells to obtain a maximal fluorescence signal from the FURA2 for purposes of quantification. FIG. 15 outlines the experimental system that was utilized to obtain the data described below. Cultured HEK or HuPCaR cells were loaded with FURA2 after their growth on plastic tissue culture dishes, scraped and rinsed in buffer to create a cell suspension that was then divided into various aliquots. Selected aliquots were exposed to EF in the EF exposure device. Subsequent to either EF exposure or sham control (no EF) treatments, aliquots of cells were used for standard ratio imaging fluorimetry analysis to measure changes in intracellular Ca^2+ concentrations. Initially, measurements were obtained of the baseline intracellular Ca^2+ concentration for each aliquot of cells as shown by the bracket marked #1 in FIG. 15. […] In an effort to obtain more quantitative data from individual aliquots within an individual experiment as well as comparison of data from different experiments, we incorporated the use of ionomycin as shown in FIG. 13 to determine the maximal FURA2 signal achievable within each aliquot of cells. […]

ovariectomized rats = settings: restraint, after 60 min session, n=6
Experimental: Rats were restricted by wrapping each with a thin polycarbonate sheet and laying it over the lower electrode for 30 min.
To examine the effect of exposure to EF, we used normal and ovariectomized rats. Normal rats were divided into two groups of restraint alone and restraint plus EF.
Ovariectomies were performed 4 weeks before experimentation. EF exposure and restraint treatment applied in this study were as follows: Rats were exposed to 50 Hz, 17,500 V/m EF for a total of 1 hr. Rats were restrained with thin polycarbonate sheeting for the latter half of the EF exposure period. The experimental design in the control groups was the same as in the experimental group except for the absence of EF exposure. […]
Hematological analyses including red and white blood cell count, platelet count, hematocrit and hemoglobin levels were performed using an automatic multi-hemocytometer (Sysmec CC-78, Sysmec inc., Tokyo, Japan). Plasma glucose, lactate and pyruvate levels were measured with an automatic analyzer (7170 Hitachi, Hitachi Co. ltd., Tokyo, Japan). ACTH levels were measured by using an ACTH radio immunoassay kit (ACTH IRMA, MITSUBISHI CHEMICAL Co. Ltd.) and a gamma counter (Auto-Gamma 5530 Gamma Counting System, Packard Instrument Co. ltd.). Plasma corticosterone level was measured using a commercial kit (ImmuChem Double Antibody Corticosterone kit, ICN Biomedicals Inc.). […]

mouse splenocytes = assay: [Ca^2+]c-high cells in lectin-stimulated mouse splenocytes, fluo-3 flow cytometry; assay type: cell-based, BALB/c mice
Experimental: In order to avoid contact of the cells and the lower electrode, polycarbonate membrane (Isopore, MILLIPORE, MA USA) was placed between the dish and the insert. Approximately 1 ml of the cell suspension was poured into culture well/space and covered with a lid.
Female BALB/c mice, 4-7 wk old obtained from CLEA Inc. (Tokyo, Japan) maintained in a conventional animal house equipped with clean air-filtering device were splenectomized under anesthesia, and cell suspensions of splenocytes were prepared. To examine cell viability, the cells were cultivated in Dulbecco's modified Eagle's medium (SIGMA, MO, USA) supplemented with 10% fetal bovine serum (FSB). The cells were maintained in Hank's balanced salt solution (HBSS) (SIGMA, MO, USA) during examination for [Ca^2+]c which was carried out within 4 hr after cell preparation. Cells were stored at 4 degree C. prior to use.
Splenocytes (10^6 cells/ml) were incubated for 20 min at 37 degrees C. in HBSS containing 2.5 μM fluo-3-acetoxylmethyl (Molecular Probes, USA) [Vandenberghe et al., 1990]. The cell suspension was then diluted 5 times with HBSS containing 1% FBS, incubated for 40 min at 37 degrees C., washed 3 times with assay buffer, and the cells were then suspended in the assay buffer at a concentration of 1×10^6/ml. Throughout the cell preparation, the cell suspensions were mixed gently.
Considering the reported synergistic interaction between EMF and mitogen (Walleczek and Liburdy, 1990), concanavalin-A (Con-A) (Seikagaku Co., Tokyo, Japan) and phytohemaglutinin (PHA) (SIGMA, MO, USA) were used.
Taking into account the results of the viability test for exposed murine splenocytes earlier assayed, we chose to use the optimum culture and exposure conditions (60 Hz, 6 μA/cm^2 EF) in carrying out the following five experiments: • (1) cells suspended in HEPES-buffered saline (BS)+1 mM CaCl2 were exposed to EF for a total of 40 min, and 12.5 μg/ml of Con-A was added after the first 8 min of exposure. The control groups consisted of EF-unexposed cells containing Con-A, and EF-exposed cells without Con-A. Percent [Ca^2+]c-high cells was checked at certain exposure points; • (2) cells in HEPES-BS+1 mM CaCl2 were exposed for a total of 12 min, and different concentrations (1 ng-12.5 μg/ml) of Con-A were added after the first 4 min of exposure. The control group was essentially the same as that of the experimental group but without EF-exposure; • (3) cells in HEPES-BS+1 mM CaCl2 were exposed for a total of 8 min, and 5 μg/ml of PHA was added after the first 4 min of exposure. The control groups consisted of EF-unexposed cells containing PHA, and EF-exposed cells without PHA; • (4) cells suspended in HEPES-BS without CaCl2 were exposed for a total of 12 min, and different concentrations (1 ng-5 μg/mil) of Con-A were added after the first 4 min of exposure. The control group was essentially the same as the experimental group but without EF exposure; and • (5) to evaluate the persistent effect of EF exposure, cells suspended in HEPES-BS+[…] were exposed for a total of 4 min, after which different concentrations (0.025-12.5 μg/ml) of Con-A were added, and the generation of [Ca^2+]c-high cells for the next 8 min without EF exposure was monitored with flow cytometry. The control was essentially the same as the experimental group but without any EF-exposure. Statistical Analysis

murine splenocytes = assay: Cytoplasmic free Ca^2+ in murine splenocytes stimulated with ConA, fluo3 flow cytometry; assay type: cell-based, mice; settings: ConA stimulation after 4 min exposure
Experimental: In order to determine the effect of EF on calcium ion concentration in murine splenocytes, specific EF field exposures of 60 Hz were applied to murine splenocytes. Mice were splenectomized under anesthesia. In a 60 mm dish, the spleen was injected with PBS (phosphate buffered saline including 0.083% NH4Cl). The cells were re-suspended and maintained in Hank's balanced salt solution (HBSS) (SIGMA, MO, USA), during examination for [Ca^2+ ]c, which was carried out within 4 hours after cell preparation. Cells were stored at 4° C. prior to use.
The application of a 60 Hz EF to splenocyte cells created applied current densities of 6, 20, 60, and 200 μA/cm^2. Splenocyte cells were exposed to these conditions for 4 minutes, after which exposure the splenocyte samples were stimulated with Concanavalin A (ConA). Following stimulation of splenocytes with ConA, cytoplasmic free Ca^2+ concentration was determined by fluo3 flow cytometry.

Molecule: CNc1ccc2oc(C[C@H]3O[C@@]4(CC[C@H]3C)O[C@H]([C@H](C)C(=O)c3ccc[nH]3)[C@H](C)C[C@H]4C)nc2c1C(=O)O [A23187]
- Membrane potential (DiBAC intensity) [1]: alters the membrane potential

Molecule: [Ca+2].[Cl-].[Cl-] [Ca^2+, CaCl2]
- EC50 ([2]; FURA2 response method of Quinn et al., read-out: EC50 value for Ca^2+ derived using the method outlined in FIG. 20): 3.5 mM
- EC50 ([2]; calculated from Na+/Ca2+ ratio midpoint 36.6, Standard Experimental Buffer of 125 mM NaCl, FURA2 baseline, read-out: EC50 value for Ca): 3.5 mM

Molecule: CN1C(=O)CN=C(c2ccccc2)c2cc(Cl)ccc21 [diazepam]
- WBC counts (ovariectomized rats): 85 ×10^2 cells/μl

Molecule: concanavalin-A [Con-A]
- Time post-Con-A stimulation of decline in [Ca^2+]c-high cells (mouse splenocytes; 12.5 μg/ml Con-A): approximately 4 min
- Time to saturation point of Con-A-induced response after addition of the mitogen (mouse splenocytes; 12.5 μg/ml Con-A): 5 to 8 min
- Number of [Ca^2+]c-high cells (mouse splenocytes; 12.5 μg/ml Con-A, 1 mM CaCl2, EF-exposed and unexposed cell suspensions): increased significantly
- [Ca^2+]c-high cells compared to cells stimulated with 0.025 μg/ml of Con-A (mouse splenocytes; 3.125-12.5 μg/ml Con-A, unexposed or earlier exposed to EF for 4 min): significant increase
- Time post-Con-A stimulation at which sustained increase in [Ca^2+]c-high cells leveled off (mouse splenocytes; 3.125 and 6.25 μg/ml Con-A): about 8 min
- Con-A-dependent [Ca^2+]c rise (mouse splenocytes; Ca^2+-free cell condition, control and EF-exposed groups): negligible
- Calcium concentration in the splenocyte cells (murine splenocytes): increased
